Source: ChEMBL document CHEMBL3352299, “Antiproliferative 4-(1,2,4-oxadiazol-5-yl)piperidine-1-carboxamides, a new tubulin inhibitor chemotype” (Bioorg Med Chem Lett, 2014)

Key:
[1] = tested on: DU-145; experiment: Antiproliferative activity against human DU145 cells at 50 uM after 3 days by fluorescence assay; assay type: functional; conditions: DU-145, 72 h, read-out: GI
[2] = tested on: DU-145; experiment: Antiproliferative activity against human DU145 cells after 3 days by fluorescence assay; assay type: functional; conditions: DU-145, 72 h
[3] = molecular target: Tubulin; experiment: Displacement of [3H]-colchicine from tubulin (unknown origin) after 10 mins by turbidimetrically; assay type: protein-complex assay, Homo sapiens
[4] = tested on: K562; experiment: Induction of mitotic arrest in human K562 cells assessed as mitotic indices at 5 uM by light microscopy; assay type: functional
[5] = tested on: K562; experiment: Induction of mitotic arrest in human K562 cells assessed as growth inhibition by light microscopy; assay type: functional, cell-based

Compound | GI50 [2] | inhibition of growth at 50 µM [1] | other results
COC(=O)CNC(=O)N1CCC(c2nc(-c3ccc(F)cc3)no2)CC1 | – | < 20% | –
O=C(NCc1ccccc1)N1CCC(c2nc(CCN3CCOCC3)no2)CC1 | 11200 nM | – | –
CC(C)Cc1noc(C2CCN(C(=O)NCc3ccccc3)CC2)n1 | – | < 20% | –
Cc1cc(CNC(=O)N2CCC(c3nc(-c4ccc(F)cc4)no3)CC2)nn1C | 940 nM | – | –
O=C(NCC1CC1)N1CCC(c2nc(-c3ccc(F)cc3)no2)CC1 | – | < 20% | –
O=C(N1CCC(c2nc(-c3ccc(F)cc3)no2)CC1)N1CCCc2ccccc21 | – | < 20% | –
CN(Cc1ccco1)C(=O)N1CCC(c2nc(-c3ccc(F)cc3)no2)CC1 | 17000 nM | – | –
O=C(N1CCC(c2nc(-c3ccc(F)cc3)no2)CC1)N1CCc2ccccc21 | – | < 20% | –
Cc1cc(CNC(=O)N2CCC(c3nc(COc4ccccc4)no3)CC2)nn1C | 2800 nM | – | –
O=C(N1CCC(c2nc(-c3ccc(F)cc3)no2)CC1)N1CCc2ccccc2C1 | 21000 nM | – | –
C#CCNC(=O)N1CCC(c2nc(-c3ccc(F)cc3)no2)CC1 | – | < 20% | –
O=C(NCc1ccsc1)N1CCC(c2nc(Cc3ccccc3)no2)C1 (centres undefined) | 6500 nM | – | –
O=C(NCc1ccsc1)N1CCCC1c1nc(Cc2ccccc2)no1 (centres undefined) | – | < 20% | –
Cc1noc(C2CCN(C(=O)NCc3ccccc3)CC2)n1 | – | < 20% | –
O=C(NCc1ccsc1)N1CCCCC1c1nc(Cc2ccccc2)no1 (centres undefined) | – | < 20% | –
CC(C)(C)NC(=O)N1CCC(c2nc(-c3ccc(F)cc3)no2)CC1 | – | < 20% | –
COc1cccc(NC(=O)N2CCC(c3nc(-c4ccc(Cl)cc4)no3)CC2)c1 | 9500 nM | – | IC50 [3]: 5300 nM
COCCNC(=O)N1CCC(c2nc(-c3ccc(F)cc3)no2)CC1 | – | < 20% | –
O=C(N1CCCCC1)N1CCC(c2nc(-c3ccc(F)cc3)no2)CC1 | – | < 20% | –
O=C(N1CCOCC1)N1CCC(c2nc(-c3ccc(F)cc3)no2)CC1 | – | < 20% | –
CCCCNC(=O)N1CCC(c2nc(-c3ccc(F)cc3)no2)CC1 | – | < 20% | –
O=C(NCc1ccsc1)N1CCCC(c2nc(Cc3ccccc3)no2)C1 (centres undefined) | – | < 20% | –
O=C(NCc1ccc2c(c1)OCO2)N1CCC(c2nc(-c3ccc(F)cc3)no2)CC1 | 1300 nM | – | –

Now from value to compound, other results behind:

GI50 [2] | Compound | inhibition of growth at 50 µM [1] | other results
1100 nM | O=C(NCc1ccoc1)N1CCC(c2nc(-c3ccc(F)cc3)no2)CC1 | – | –
6000 nM | O=C(NCc1ccco1)N1CCC(c2nc(-c3ccccc3)no2)CC1 | – | –
13600 nM | O=C(NCCc1ccccc1)N1CCC(c2nc(-c3ccc(F)cc3)no2)CC1 | – | –
3300 nM | O=C(NCc1ccco1)N1CCC(c2nc(-c3ccc(F)cc3)no2)CC1 | – | –
4400 nM | COc1cc(OC)cc(-c2noc(C3CCN(C(=O)NCc4ccccc4)CC3)n2)c1 | – | –
950 nM | Cc1cc(CNC(=O)N2CCC(c3nc(Cc4ccccc4)no3)CC2)nn1C | – | –
650 nM | O=C(NCc1ccsc1)N1CCC(c2nc(-c3ccc(F)cc3)no2)CC1 | – | –
2200 nM | Cc1ccc(-c2noc(C3CCN(C(=O)NCc4ccco4)CC3)n2)cc1 | – | IC50 [3]: 2300 nM
1200 nM | Cc1cccc(-c2noc(C3CCN(C(=O)NCc4ccccc4)CC3)n2)c1 | – | –
9800 nM | O=C(NCCc1c[nH]c2ccccc12)N1CCC(c2nc(-c3ccc(F)cc3)no2)CC1 | – | –
2700 nM | O=C(NCc1ccco1)N1CCC(c2nc(-c3ccc(Cl)cc3)no2)CC1 | – | IC50 [3]: 2000 nM
520 nM | O=C(NCc1ccccc1)N1CCC(c2nc(COc3ccccc3)no2)CC1 | – | –
1900 nM | O=C(NCc1ccccc1)N1CCC(c2nc(-c3ccccc3)no2)CC1 | – | Activity [4]: 75%; IC50 [3]: 1800 nM; IC50 [5]: 1500 nM
12300 nM | Cc1ccccc1-c1noc(C2CCN(C(=O)NCc3ccccc3)CC2)n1 | – | –
120 nM | O=C(NCc1ccsc1)N1CCC(c2nc(Cc3ccccc3)no2)CC1 | – | –
2900 nM | O=C(NCc1ccccc1)N1CCC(c2nc(-c3ccc(F)cc3Cl)no2)CC1 | – | –
2800 nM | O=C(NCc1ccccc1)N1CCC(c2nc(-c3ccc(F)cc3)no2)CC1 | – | Activity [4]: 72%; IC50 [3]: 1600 nM; IC50 [5]: 1200 nM
1600 nM | Cc1ccc(-c2noc(C3CCN(C(=O)NCc4ccccc4)CC3)n2)cc1 | – | Activity [4]: 83%; IC50 [3]: 1100 nM; IC50 [5]: 550 nM
760 nM | O=C(NCc1ccccc1)N1CCC(c2nc(Cc3ccccc3)no2)CC1 | – | –
1700 nM | O=C(NCc1ccsc1)N1CCC(c2nc(COc3ccccc3)no2)CC1 | – | –
9300 nM | O=C(NCc1ccccc1)N1CCC(c2nc(-c3ccccc3Cl)no2)CC1 | – | IC50 [3]: 2600 nM
8600 nM | O=C(NCc1ccccc1)N1CCC(c2nc(CCN3CCc4ccccc4C3)no2)CC1 | – | –
1700 nM | O=C(NCc1cccs1)N1CCC(c2nc(-c3ccc(F)cc3)no2)CC1 | – | –
